Laboratory results reported in patent US20250241902A1, “METHODS, COMPOSITIONS AND SYSTEMS FOR EVALUATION OF VISUAL FUNCTION” (BELITE BIO, INC, priority 2022, published 2025).
Several values for one entry are separate records, joined by “and”; a condition that tells them apart may be missing. Equal values may be shown once.

Key:
Assay type in all cases: in vivo, human
[1] = system: adolescent STGD1 patients; experiment: Clinical study: best corrected visual acuity (BCVA) test
From the text: In some embodiments, visual acuity may be evaluated with a logarithm of the minimum angle of resolution chart (log MAR chart). A log MAR chart comprises rows of letters that are used to estimate visual acuity. Zero log MAR may indicate standard vision, positive values may indicate poor vision and negative values may indicate good vision. In some embodiments, the best corrected visual acuity (BCVA) early treatment diabetic retinopathy study (ETDRS) letters score can be calculated with the following formula: […]
(§1) The therapeutic effect of a compound of Formula (I), also known as Tinlarebant, was evaluated in a group of individuals with adolescent STGD. The treatment covered Phase 1b and Phase 2. Phase 1b included a 4-week treatment and a 14-day follow-up. Phase 2 included a 2-year treatment and 1-month follow-up. A total of 13 individuals received the treatment: 5 males and 8 females. All 13 individuals had STGD 1 aged 12-18 years old. All 13 individuals received the treatment of a compound of Formula (I), a RBP4 inhibitor.
(§2) The clinical study evaluated ocular and systemic safety and tolerability of the compound and determined the optimal dose, pharmacokinetics (PK), and […]. The study measured visual improvement by best corrected visual acuity (BCVA) test, self-reported visual questionnaire test, the change in lesion size by FAF, the change in retinal thickness and morphology by SD-OCT, the change in retinal sensitivity by microperimetry, and the change in quantitative AF. In addition, this study evaluated correlation between reduction in RBP4 and rate of lesion growth including change in autofluorescence.

[2] = system: adolescent STGD1 patients; experiment: Clinical study (Phase 1b/2): ocular and systemic safety and tolerability
Method: as §1, §2
In addition, the treatment was able to maintain 80%-90% RBP4 reduction from baseline throughout the study. All patients received at least 7 months of the treatment. […] Delayed dark adaptation, night vision impairment, and xanthopsia/chromatopsia were the only drug related ophthalmic adverse events.

[3] = system: adolescent STGD1 patients; experiment: Clinical study: retinal thickness by SD-OCT (CST, MST, OST)
From the text: (§3) In some embodiments, spectral domain-optical coherence tomography (SD-OCT) is used for evaluation of ocular disease or visual function. In some embodiments, SD-OCT provides in vivo cross-sectional and […] visualization of the retina and the RPE. In some embodiments, SD-OCT is used to detect the presence of RPE atrophy. In some embodiments, SD-OCT is used to evaluate ellipsoid zone (EZ) defect width. In some embodiments, the EZ line provides information on the integrity of the photoreceptors. In some embodiments, the EZ line provides useful information in early disease. In some embodiments, an image of SD-OCT is used to evaluate the central subfield retina thickness (CST). In some embodiments, an image of SD-OCT is used to evaluate the middle subfield retina thickness (MST). In some embodiments, an image of SD-OCT is used to evaluate the outer subfield retina thickness (OST). The therapeutic effect of a compound of Formula (I), also known as Tinlarebant, was evaluated in a group of individuals with adolescent STGD. The treatment covered Phase 1b and Phase 2. Phase 1b included a 4-week treatment and a 14-day follow-up. Phase 2 included a 2-year treatment and 1-month follow-up. A total of 13 individuals received the treatment: 5 males and 8 females. All 13 individuals had STGD 1 aged 12-18 years old. All 13 individuals received the treatment of a compound of Formula (I), a RBP4 inhibitor. The clinical study evaluated ocular and systemic safety and tolerability of the compound and determined the optimal dose, pharmacokinetics (PK), and […]. The study measured visual improvement by best corrected visual acuity (BCVA) test, self-reported visual questionnaire test, the change in lesion size by FAF, the change in retinal thickness and morphology by SD-OCT, the change in retinal sensitivity by microperimetry, and the change in quantitative AF. In addition, this study evaluated correlation between reduction in RBP4 and rate of lesion growth including change in autofluorescence.

[4] = system: adolescent STGD1 patients; experiment: Clinical study: ellipsoid zone (EZ) defect width by SD-OCT
From the text: as §3

[5] = system: adolescent STGD1 patients; experiment: Clinical study: quantitative autofluorescence (qAF)
From the text: In some embodiments, a method for measuring quantitative autofluorescence (qAF) is used or evaluation of ocular disease or visual function. In some embodiments, the qAF method may incorporate an internal fluorescent reference to account for variable laser power and detector sensitivity. In some embodiments, an intensity of AF may be calculated against the calibrated internal fluorescence reference standard in the optical pathway.
as §1, §2

[6] = system: adolescent STGD1 patients; experiment: Clinical study: lesion size by fundus autofluorescence (FAF; DDAF/QDAF); settings: for FAF lesion area: subject 3, right eye
From the text: Fundus autofluorescence (FAF) imaging is used as an endpoint in clinical trials. FAF is used to detect lesion growth with more than one timepoint of measurements. The change in lesion area measured by FAF can be plotted against time to calculate lesion growth rate, e.g., how fast or slow a patient's macula or retina is degenerating as compared to placebo. FAF imaging is used to compare the rate of anatomical or structural deterioration or change to evaluate a drug or treatment's therapeutic effect, e.g., reduced worsening of the retina degeneration.
In some embodiments, fundus autofluorescence (FAF) is used for evaluation of ocular disease or visual function. In some embodiments, one or more retina images of FAF is used for detection of atrophic areas. In some embodiments, one or more retina images of FAF is used to gain detailed insight into the health of the retinal pigment epithelium (RPE). In some embodiments, one or more images of FAF may be high-contrast retina images. In some embodiments, two types of decreased autofluorescence (DAF) may be quantified. In some embodiments, one type of DAF may be definite DAF (DDAF) which includes an area having a level of darkness being defined as qualitatively definite. In some embodiments, the other type of DAF may be questionable DAF (QDAF) which includes an area having a level of darkness being defined as qualitatively questionable. In some embodiments, the size of decreased autofluorescence (DAF) lesion may be the sum of all DDAF and QDAF. In some embodiments, DAF may be expressed as an area in square millimeters (mm^2).
as §1, §2

[7] = subject 3, left eye, phase 2 baseline
[8] = subject 3, left eye, phase 2 month 6
[9] = subject 4, left eye, phase 2 baseline
[10] = subject 4, left eye, phase 2 month 6
[11] = subject 11, both eyes, phase 2 week 1 vs week 9

CC(=O)N1CCc2c(C(=O)N3CCC(c4ccc(F)c(F)c4C(F)(F)F)CC3)n[nH]c2C1 [Tinlarebant]
patients with visual improvement in at least one eye (BCVA) ([1]; cohort of 13): 8 out of the 13
patients with visual improvement in both eyes (BCVA) ([1]; cohort of 13): 2 patients
visual improvement, summary ([1]; cohort, approximately 7 months): Majority of the patients showed visual improvement in at least one eye
BCVA average letters of gain ([1]; left eye, cohort): 1.9±1.32 letters
BCVA average letters of loss ([1]; right eye, cohort): −2.8±1.85 letters
BCVA ETDRS letters gained ([1]; subject 4, both eyes): 3 ETDRS letters
BCVA letters ([1]; subject 4, both eyes, intermediate value in 7-month treatment period): 50 letters
BCVA letters ([1]; subject 4, both eyes, last value in 7-month treatment period): 53 letters
BCVA letters ([1]; subject 4, both eyes, start of 7-month treatment period): 45 letters
BCVA letters gained ([1]; subject 10, both eyes, approximately 7-month treatment): 9 letters
BCVA letters gained ([1]; subject 11, left eye): 6 letters
BCVA change ([1]; subject 11, right eye): no change
safety and tolerability ([2]; 5 mg daily, adolescent STGD1 patients): safe and well tolerated
adverse events requiring discontinuation of treatment ([2]; 13 patients): no adverse events required discontinuation of treatment
vital signs, physical exams, electrocardiogram (ECG), organ functions ([2]; 13 patients): No clinical significant findings
severe adverse events ([2]; 13 patients, at least 7 months of treatment): No severe adverse events
safety and tolerability ([2]; after approximately 7 months of treatment (1 month Phase 1b, 6 months Phase 2)): safe and well tolerated
severity of delayed dark adaptation, night vision impairment, xanthopsia/chromatopsia (drug related ophthalmic adverse events) ([2]; all instances, 13 patients): mild and transient
symptoms in patients with delayed dark adaptation ([2]; human, in vivo): mostly asymptomatic
Delayed Dark Adaptation: Frequency (subject) ([2]; related adverse event): 8/13
Night Vision Impairment: % Recovered ([2]; related adverse event): 0/1
Night Vision Impairment: Frequency (subject) ([2]; related adverse event): 1/13
Xanthopsia/Chromatopsia: Frequency (subject) ([2]; related adverse event): 9/13
patients with improvement (increase in thickness) or no change in OST in both eyes ([3]; cohort): 4 patients
patients with no change or growth in MST in at least one eye ([3]; cohort): 5 patients
patients with no to little change in CST in at least one eye ([3]; cohort): 5 patients
CST change, Left Eye (mean ± SD, μm) ([3]; cohort means, Table 4): −8.83 ± 1.91 μm
CST change, Right Eye (mean ± SD, μm) ([3]; cohort means, Table 4): −10.15 ± 1.5 μm
MST change, Left Eye (mean ± SD, μm) ([3]; cohort means, Table 4): −7.92 ± 2.13 μm
MST change, Right Eye (mean ± SD, μm) ([3]; cohort means, Table 4): −6.77 ± 1.74 μm
OST change, Left Eye (mean ± SD, μm) ([3]; cohort means, Table 4): −7.60 ± 2.62 μm
OST change, Right Eye (mean ± SD, μm) ([3]; cohort means, Table 4): −8.08 ± 2.47 μm
CST average thinning ([3]; left eye, cohort): 7.6±2.14 microns
MST average thinning ([3]; left eye, cohort): 7.2±2.54 microns
OST average thinning ([3]; left eye, cohort): 3.11±3.5 microns
CST average thinning ([3]; right eye, cohort): 10.27±2.2 microns
MST average thinning ([3]; right eye, cohort): 6.27±2.03 microns
OST average thinning ([3]; right eye, cohort): 3.8±3.08 microns
average thickness: center [3, 7]: 97 micron
average thickness: central max [3, 7]: 202 micron
average thickness: central min [3, 7]: 97 micron
average thickness: marker [3, 7]: 97 micron
average thickness: center [3, 8]: 112 micron
average thickness: central max [3, 8]: 216 micron
average thickness: central min [3, 8]: 104 micron
average thickness: marker [3, 8]: 112 micron
change in CST, MST, or OST ([3]; subject 3, overall): little to no change
change of OST ([3]; subject 4, both eyes, especially left, phase 2 week 1 vs week 9): increase
change of MST ([3]; subject 4, either eye, phase 2 week 1 vs week 9): little to no change
average thickness: center [3, 9]: 63 micron
average thickness: central max [3, 9]: 218 micron
average thickness: central min [3, 9]: 57 micron
average thickness: marker [3, 9]: 60 micron
average thickness: center [3, 10]: 58 micron
average thickness: central max [3, 10]: 199 micron
average thickness: central min [3, 10]: 54 micron
average thickness: marker [3, 10]: 56 micron
retinal thickness growth (stated after OST) ([3]; subject 11, both eyes (one value per eye, eye not assigned)): 15 microns and 16 microns
change of OST [3, 11]: increase
change of CST or MST ([3]; subject 11, either eye, phase 2 week 1 vs week 9): little to no change
patients with improvement in EZ defect width (narrowing) in at least one eye ([4]; cohort): 5 patients
patients with improvement in EZ defect width in both eyes ([4]; cohort): 3 patients
EZ defect width, trend ([4]; cohort, summary): trend in reducing EZ defect width
EZ defect width average increase ([4]; left eye, cohort): 0.48±0.26 mm
EZ defect width average increase ([4]; right eye, cohort): 0.39±0.27 mm
ellipsoid zone (EZ) width change ([4]; subject 3, especially left eye, phase 2 week 1 vs week 9): decreased in both eyes
EZ defect width reduction ([4]; subject 3, left eye): 0.20 mm
EZ defect width [4, 7]: 2.91 mm
EZ defect width [4, 8]: 2.71 mm
EZ defect width reduction ([4]; subject 3, right eye): 0.13 mm
EZ defect width ([4]; subject 4, right eye, Phase 2 Baseline): 1.79 mm
EZ defect width ([4]; subject 4, right eye, Phase 2 Month 6): 1.85 mm
EZ defect width reduction ([4]; subject 6, left eye): 0.22 mm
EZ defect width reduction ([4]; subject 6, right eye): 0.27 mm
EZ width change [4, 11]: stabilized
EZ defect width ([4]; subject 11, left eye, Phase 2 Baseline): 2.20 mm
EZ defect width ([4]; subject 11, left eye, Phase 2 Month 6): 2.29 mm
autofluorescence (AF) based on quantitative AF ([5]; subject 3, both eyes, especially left, phase 2 week 1 vs week 9): decrease
qDAF value [5, 7]: 351
qDAF value [5, 8]: 268
qDAF value ([5]; subject 3, right eye, phase 2 baseline): 335
qDAF value ([5]; subject 3, right eye, phase 2 month 6): 275
autofluorescence expansion (FAF), trend ([6]; cohort): trend of preventing or slowing autofluorescence expansion
patients who maintained no DDAF lesion growth ([6]; cohort): 12 of the 13
patients with no change or reduction in QDAF area in one or both eyes ([6]; cohort): 6 of 11
autofluorescence expansion (FAF), trend ([6]; cohort, listed as compound of Formula (I)): trend in preventing or slowing autofluorescence expansion
average change in QDAF area ([6]; left eye, cohort): 0.1±0.11 mm^2
average change in QDAF area ([6]; right eye, cohort): 0.3±0.11 mm^2
area size of QDAF ([6]; subject 3, either eye, phase 2 week 1 vs week 9): no increase
FAF lesion area ([6]; phase 2 baseline): 2.7 mm^2
FAF lesion area ([6]; phase 2 month 6): 2.7 mm^2
QDAF in size ([6]; subject 4, left eye, Phase 2 Baseline vs Month 6 (FIG. 2A)): stabilization
QDAF in size ([6]; subject 4, left or right eye, phase 2 week 1 vs week 9): no increase
QDAF/DDAF change [6, 11]: transition of QDAF to DDAF
